In patent publication US20180055844A1 (Celgene Corporation, priority 2011, published 2018):
Where “and” joins values, the source holds several entries; their conditions need not be identical. Equal entries are not always repeated. Entries after “also recorded” stand apart in the source; their conditions may differ. Where two headings read alike, the source gives them in different places.

Key:
blood vessel growth = assay: Mouse Matrigel angiogenesis assay; format: in vivo; conditions: 30 mpk
WSU-DLCL2 [1] = assay: Cell cycle analysis; format: cell-based
Experimental: (§1) Cells were treated with DMSO or an amount of a compound provided herein for 48 hours. Propidium iodide staining for cell cycle was performed using CycleTEST PLUS (Becton Dickinson) according to manufacturer's protocol. Following staining, cells were analyzed by a FACSCalibur flow cytometer using ModFit LT software (Becton Dickinson).

DoHH2 = assay: Cell cycle analysis; format: cell-based
Experimental: as §1

SF295 = assay: Solid tumor cell colony formation; format: cell-based; conditions: Homo sapiens, SF-295
SF-295 = assay: Invasion of solid tumor cells; format: cell-based; conditions: Homo sapiens; SF-295 (PDGF), glioblastoma
Colo-205 = assay: Solid tumor cell colony formation; format: cell-based; conditions: Homo sapiens
HUVEC = HUVEC migration; format: cell-based; conditions: Homo sapiens
1053 = assay: Activity against lenalidomide resistant cell lines; format: cell-based; conditions: 1053, n = 3; read-out: IC50
Experimental: (§2) The ability of compounds to effect the proliferation of MM cell lines was investigated in an in vitro study. Uptake of [^3H]-thymidine by H929 MM cells and 7-AAD uptake in several MM cell lines (H929, U266B1, Anbl-6, KMS-34, OPM-2, DF-15, DF15/R, CAG, MM1.S and LP-1) was measured as an indicator of cell proliferation. Cells were incubated in the presence of compounds for 72 hours ([^3H]-thymidine was included for the last 6 hours of the incubation period) or 5 days followed by 7-AAD uptake to measure and count viable cells.

D1 = assay: Activity against lenalidomide resistant cell lines; format: cell-based; conditions: D1, n = 3; read-out: IC50
Experimental: as §2

1054 = assay: Activity against lenalidomide resistant cell lines; format: cell-based; conditions: 1054, n = 3; read-out: IC50
Experimental: as §2

H929 = assay: Activity against lenalidomide resistant cell lines; format: cell-based; conditions: Homo sapiens, NCI-H929; H929, n = 3
Experimental: as §2

1052 = assay: Activity against lenalidomide resistant cell lines; format: cell-based; conditions: 1052, n = 3; read-out: IC50
Experimental: as §2

1051 = assay: Activity against lenalidomide resistant cell lines; format: cell-based; conditions: 1051, n = 3; read-out: IC50
Experimental: as §2

U251 = assay: Solid tumor cell colony formation; format: cell-based; conditions: Homo sapiens, U-251
TNFα = assay: LPS-induced TNFα; format: cell-based
SNB-19 = assay: Invasion of solid tumor cells; format: cell-based; conditions: Homo sapiens; SNB-19 (PDGF), glioblastoma
SK-HEP-1 = assay: Invasion of solid tumor cells; format: cell-based; conditions: Homo sapiens, SK-HEP1; SK-HEP-1 (VEGF), hepatocellular
WSU-DLCL2 xenograft = WSU-DLCL2 xenograft model; format: in vivo; conditions: combination with Rituxan (2 mg/kg iv qw)
[2] = test system: multiple myeloma (MM) cell lines; assay: Inhibition of MM cell proliferation; format: cell-based
Experimental: as §2

U87 = assay: Invasion of solid tumor cells; format: cell-based; conditions: Homo sapiens, U-87 MG; U87 (PDGF), glioblastoma
U87 GB xenograft = U87 GB xenograft model; format: in vivo; conditions: 3 and 30 mg/kg qd
OCI-Ly10 = assay: 5 day 3H thymidine incorporation assay; format: cell-based; conditions: Homo sapiens; OCI-Ly10, ABC subtype
Excerpt: (§3) Results of 3 independent experiments are shown (mean±SD) in FIG. 2. […] ABC-subtype cells appear more sensitive to the antiproliferative effect than other subtype cells including GCB-DLBCL and PMBL cells.

RIVA = assay: 5 day 3H thymidine incorporation assay; format: cell-based; conditions: ABC subtype
Excerpt: as §3

U2932 = assay: 5 day 3H thymidine incorporation assay; format: cell-based; conditions: Homo sapiens; U2932, ABC subtype
Excerpt: as §3

WSU-DLCL2 [3] = assay: 5 day 3H thymidine incorporation assay; format: cell-based; conditions: Homo sapiens, WSUDLCL2; WSU-DLCL2, GCB subtype
Excerpt: as §3

TMD8 = assay: 5 day 3H thymidine incorporation assay; format: cell-based; conditions: Homo sapiens; TMD8, ABC subtype
Excerpt: as §3

OCI-Ly19 = assay: 5 day 3H thymidine incorporation assay; format: cell-based; conditions: Homo sapiens; OCI-Ly19, GCB subtype
Excerpt: as §3

Karpas-1106P = assay: 5 day 3H thymidine incorporation assay; format: cell-based; conditions: Homo sapiens, PMBL
Excerpt: as §3

SUDHL4 = assay: 5 day 3H thymidine incorporation assay; format: cell-based; conditions: Homo sapiens, SU-DHL-4; SUDHL4, GCB subtype
Excerpt: as §3

CRBN = target: T1, CRBN (Homo sapiens, UniProt Q96SW2); assay: CRBN interaction; format: binding; conditions: dose-dependent
T1 construct: endogenous in cells; HepG2 hepatocellular carcinoma cells
T1 sequence (Q96SW2 whole entry): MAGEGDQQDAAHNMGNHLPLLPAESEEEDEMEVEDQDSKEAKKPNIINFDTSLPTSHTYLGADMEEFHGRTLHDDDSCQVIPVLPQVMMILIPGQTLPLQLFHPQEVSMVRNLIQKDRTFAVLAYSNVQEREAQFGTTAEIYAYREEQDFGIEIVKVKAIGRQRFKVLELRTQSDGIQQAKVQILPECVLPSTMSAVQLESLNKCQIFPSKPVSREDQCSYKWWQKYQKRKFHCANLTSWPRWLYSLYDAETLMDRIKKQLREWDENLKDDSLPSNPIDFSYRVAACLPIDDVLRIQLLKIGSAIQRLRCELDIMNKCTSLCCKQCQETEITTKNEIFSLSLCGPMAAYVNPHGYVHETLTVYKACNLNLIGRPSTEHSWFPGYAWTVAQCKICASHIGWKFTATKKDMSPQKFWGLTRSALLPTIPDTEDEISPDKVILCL

Oral pharmacokinetics = format: in vivo, SD rat
[4] = test system: megakaryocyte progenitor cells; assay: MK colonies (megakaryocyte progenitor cells); format: cell-based
ZR-75-1 = assay: Solid tumor cell colony formation; format: cell-based; conditions: Homo sapiens
[5] = plasma, 30 mg/kg, SD rat, 30 mpk po

Cc1nc2cccc(N)c2c(=O)n1C1CCC(=O)NC1=O (stereo not shown) [compound of Formula I, 3-(5-amino-2-methyl-4-oxo-4H-quinazolin-3-yl)-piperidine-2,6-dione]
blood vessel growth (blood vessel growth): significantly inhibited | G1 arrest (WSU-DLCL2 [1]): induced G1 arrest | G1 arrest (DoHH2): induced G1 arrest | inhibition at 10 µM (SF295): 12.9% | IC50 (SF-295): 240 nM | inhibition at 10 µM (Colo-205): 17% | inhibition at 1 µM (HUVEC; read-out: inhibition of VEGF-induced migration): 38% | inhibition at 1 µM (HUVEC; read-out: inhibition of bFGF-induced migration): 28% | IC50 1053: 2100 nM | IC50 (D1): 309 nM | IC50 1054: 6590 nM | IC50 (H929): 154 nM | IC50 1052: 4240 nM | IC50 1051: 2970 nM | inhibition at 10 µM (U251): -6% | IC50 (TNFα): 17 nM | IC50 (SNB-19): 160 nM | IC50 (SK-HEP-1): 6.1 nM | complete regressions (tumor volume<25 mm^3) (WSU-DLCL2 xenograft; 3 mg): 60% | complete regressions (tumor volume<25 mm^3) (WSU-DLCL2 xenograft; 30 mg): 90% | MM cell proliferation in a number of cell lines [2]: inhibit MM cell proliferation | IC50 (U87): 80 nM | U87 tumor growth (U87 GB xenograft): significantly inhibited; also recorded: inhibits | IC50 (OCI-Ly10): 8.5 nM | IC50 (RIVA): 4300 nM | IC50 (U2932): 110 to 120 nM | IC50 (WSU-DLCL2 [3]): 790 to 2100 nM | IC50 (TMD8): 440 nM | IC50 (OCI-Ly19): > 10000 nM | IC50 (Karpas-1106P): 580 to 710 nM | IC50 (SUDHL4): > 10000 nM | interaction with HepG2 HCC CRBN (CRBN): interacts | interaction with endogenous myeloma CRBN (CRBN): interact | F (Oral pharmacokinetics; SD rat, 30 mpk po): 53% | AUC (Oral pharmacokinetics; [5]): 25000 ng·h/mL and 87 µM·h | Cmax (Oral pharmacokinetics; [5]): 4800 ng/mL and 17 µM | half-life (Oral pharmacokinetics; plasma, oral, 30 mpk, SD rat): 2.7 h | clearance (Oral pharmacokinetics; plasma, SD rat, read-out: CLp): 11 mL/min/kg | Exposures (AUC(0-t)) versus dose (Oral pharmacokinetics; up to 30 mg/kg, CD-IDS rat): increased in a dose proportional manner | inhibition of megakaryocyte progenitor cells ([4]; 10 μM): did not inhibit | IC50 ([4]; read-out: Immature MK colonies IC50): > 10000 nM | IC50 ([4]; read-out: Intermediate MK colonies IC50): > 10000 nM | inhibition at 10 µM (ZR-75-1): 90%
